What all share (format): in vivo
The subject of experiment [1] is Echinochloa crus-galli (ECHCG). Put plainly: Test 1 glasshouse assay, post-emergence herbicidal activity. The settings on record: 312 h, after 13 days, read-out: Percentage phytotoxicity ECHCG. The protocol:
(§1) Seeds of a variety of test species are sown in standard soil in pots. After cultivation for one day (pre-emergence) or after 8 days cultivation (post-emergence) under controlled conditions in a glasshouse (at 24/16° C., day/night; 14 hours light; 65% humidity), the plants are sprayed with an aqueous spray solution derived from the formulation of the “technical” (i.e. unformulated) active ingredient in acetone/water (50:50) solution containing 0.5% Tween 20 (polyoxyethylene sorbitan monolaurate, CAS Registry Number 9005-64-5). The test plants are then grown on under controlled conditions in a glasshouse (at 24/16° C., day/night; 14 hours light; 65% humidity) and watered twice daily. After 13 days for pre- or post-emergence, the test is evaluated visually, and an assessed percentage phytotoxicity score is given for each herbicidal application on each plant species (where 100%=total damage to plant; 0%=no damage to plant).
(§2) Test plants include the following: Abutilon theophrasti (ABUTH) and Amaranthus retroflexus (AMARE); these are all dicotyledonous (broadleaved) weeds. Setaria faberi (SETFA), Alopecurus myosuroides (ALOMY), and Echinochloa crus-galli (ECHCG); these are all grassy monocotyledonous weeds. Also: Zea mays (ZEAMX, corn/maize), which can be a grassy weed (“volunteer” corn) in some circumstances.
(§3) Lolium perenne (LOLPE), Alopecurus myosuroides (ALOMY), Echinochloa crus-galli (ECHCG), and Avena fatua (AVEFA); these are all grassy monocotyledonous weeds. Cool climate crop plant: Triticum aestivum (TRZAW, winter wheat).

Experiment [2] deals with Alopecurus myosuroides (ALOMY). The experiment is described as above. The settings on record: 312 h, after 13 days, read-out: Percentage phytotoxicity ALOMY. The protocol: as §1, §2, §3
Experiment [3] concerns Abutilon theophrasti (ABUTH). The experiment is described as above. The settings on record: 312 h, post-emergence (Example 1B Table 1), after 13 days, read-out: Percentage phytotoxicity ABUTH. The protocol: as §1, §2
Experiment [4] deals with Setaria faberi (SETFA). The experiment is described as above. The settings on record: 312 h, post-emergence (Example 1B Table 1), after 13 days, read-out: Percentage phytotoxicity SETFA. The protocol:
as §1, §2

The test system of experiment [5] is Zea mays (ZEAMX, corn/maize). The experiment is described as above. The settings on record: 312 h, post-emergence (Example 1B Table 1), after 13 days, read-out: Percentage phytotoxicity ZEAMX. The protocol:
as §1, §2

Experiment [6] deals with Amaranthus retroflexus (AMARE). The experiment is described as above. To be noted: 312 h, post-emergence (Example 1B Table 1), after 13 days, read-out: Percentage phytotoxicity AMARE. As for the experimental part:
as §1, §2

Experiment [7] deals with Abutilon theophrasti (ABUTH). Put plainly: Test 1 glasshouse assay, pre-emergence herbicidal activity. To be noted: 312 h, visual evaluation after 13 days, read-out: Percentage phytotoxicity ABUTH. As for the experimental part:
as §1
(§4) Test plants include the following: Abutilon theophrasti (ABUTH), Amaranthus retroflexus (AMARE): these are dicotyledonous (broadleaved) weeds. Setaria faberi (SETFA), Alopecurus myosuroides (ALOMY), Echinochloa crus-galli (ECHCG): these are grassy monocotyledonous weeds. Also: Zea mays (ZEAMX, corn/maize), which can be a grassy weed (“volunteer” corn) in some circumstances.

The subject of experiment [8] is Echinochloa crus-galli (ECHCG). Described as above. The settings on record: 312 h, visual evaluation after 13 days, read-out: Percentage phytotoxicity ECHCG. The protocol:
as §1, §4

For experiment [9], the system named is Setaria faberi (SETFA). The experiment is described as above. To be noted: 312 h, visual evaluation after 13 days, read-out: Percentage phytotoxicity SETFA. As for the experimental part: as §1, §4
The subject of experiment [10] is Zea mays (ZEAMX, corn/maize). Described as above. To be noted: 312 h, visual evaluation after 13 days, read-out: Percentage phytotoxicity ZEAMX. The protocol:
as §1, §4

The subject of experiment [11] is Alopecurus myosuroides (ALOMY). The description is as above. To be noted: 312 h, visual evaluation after 13 days, read-out: Percentage phytotoxicity ALOMY. As for the experimental part:
as §1, §4

Experiment [12] deals with Amaranthus retroflexus (AMARE). The description is as above. To be noted: 312 h, visual evaluation after 13 days, read-out: Percentage phytotoxicity AMARE. The protocol:
as §1, §4

In a further experiment the test system is Avena fatua (AVEFA). Put plainly: Test 1 glasshouse assay, post-emergence herbicidal activity. To be noted: 312 h, post-emergence (Example 1B Table 2), after 13 days, read-out: Percentage phytotoxicity AVEFA. The protocol: as §1, §3
The subject of the next experiment is Lolium perenne (LOLPE). The description is as above. To be noted: 312 h, post-emergence (Example 1B Table 2), after 13 days, read-out: Percentage phytotoxicity LOLPE. As for the experimental part:
as §1, §3

In experiment [13] the test system is Triticum aestivum (TRZAW, winter wheat). The experiment is described as above. The settings on record: 312 h, post-emergence (Example 1B Table 2), after 13 days, crop plant, read-out: Percentage phytotoxicity TRZAW. As for the experimental part: as §1, §3
[14] abbreviates: post-emergence (Example 1B Table 1), 30 g/ha.
Setting [15] is: post-emergence (Example 1B Table 1).
Where [16] appears, read: post-emergence (Example 1B Table 2).
[17] abbreviates: post-emergence (Example 1B Table 1), 8 g/ha.

Turning to `C#CCC1CC(=O)C(c2c(F)cc(-c3ccc(F)cc3)cc2Cl)C1=O` (centres unmarked) [Compound A4], the pest or weed control at 30 g/ha came out at 90% in [1] (setting [14]); 70% in experiment [2] (setting [14]); 40% in [3] (30 g/ha); 100% in the experiment with Setaria faberi (SETFA) [4] (30 g/ha); 100% in experiment [5] (30 g/ha); 60% in experiment [6] (30 g/ha). Moreover, the pest or weed control at 250 g/ha in [1] (setting [15]) amounted to 100%; in experiment [2] (setting [15]), 100%; in [3], 80%; in the experiment with Setaria faberi (SETFA) [4], 100%; in experiment [5], 100%; in experiment [6] it was 80%. In addition, the pest or weed control at 250 g/ha was found to be 0% in experiment [7]; 100% in experiment [8]; 100% in the experiment with Setaria faberi (SETFA) [9]; 100% in [10]; 90% in experiment [11]; 80% in experiment [12].
`CC#CCC1CC(=O)C(c2c(C)cc(C)cc2C)C1=O` (centres unmarked) [Compound A24]: the pest or weed control at 62.5 g/ha in [1] (setting [16]) was 70%; in experiment [2] (setting [16]), 60%; in the experiment on Avena fatua (AVEFA), 60%; with Lolium perenne (LOLPE), 70%. The pest or weed control at 250 g/ha in experiment [1] (setting [16]) was 80%; in [2] (setting [16]) it was 80%; in experiment [8] it was 100%; in [11], 100%; with Avena fatua (AVEFA), 50%; in the experiment on Lolium perenne (LOLPE), 80%. Also, the plant injury at 62.5 g/ha in [13] is 0%. For the same compound, in experiment [13], the plant injury at 250 g/ha came out at 0%.
Turning to `C#CCC1CC(=O)C(c2c(Br)cc(C)cc2Br)C1=O` (centres unmarked) [Compound A26], the pest or weed control at 250 g/ha was found to be 100% in experiment [1] (setting [16]); 60% in [2] (setting [16]); 80% in [8]; 30% in [11]; 70% with Avena fatua (AVEFA); 100% in the experiment on Lolium perenne (LOLPE). Further, the plant injury at 250 g/ha in experiment [13] was 10%.
As for `C#CCC1CC(=O)C(c2c(C)cc(C#C)cc2C)C1=O` (centres unmarked) [Compound A27], the pest or weed control at 62.5 g/ha came out at 90% in experiment [1] (setting [16]), 90% in experiment [2] (setting [16]), 90% in the experiment on Avena fatua (AVEFA) and 80% in the experiment on Lolium perenne (LOLPE). Moreover, the pest or weed control at 250 g/ha (in experiment [1] (setting [16]); in [2] (setting [16]); in experiment [8]; in [11]; in the experiment with Avena fatua (AVEFA); in the experiment with Lolium perenne (LOLPE)) was 100% each time. Further, the plant injury at 62.5 g/ha in [13] stood at 80%. The plant injury at 250 g/ha in experiment [13] came to 90%.
Regarding `C#Cc1cc(C)c(C2C(=O)CC(CC#CC)C2=O)c(C)c1` (centres unmarked) [Compound A28], the pest or weed control at 62.5 g/ha in experiment [1] (setting [16]) came to 90%; in experiment [2] (setting [16]) it was 70%; in the experiment with Avena fatua (AVEFA), 80%; in the experiment on Lolium perenne (LOLPE), 80%. Further, the pest or weed control at 250 g/ha in experiment [1] (setting [16]) was found to be 100%; in experiment [2] (setting [16]), 100%; in experiment [8], 100%; in experiment [11], 90%; in the experiment on Avena fatua (AVEFA) it was 90%; with Lolium perenne (LOLPE), 90%. In addition, in experiment [13], the plant injury at 62.5 g/ha is 30%. Moreover, in experiment [13], the plant injury at 250 g/ha came to 80%.
As for `C#CCC1CC(=O)C(c2c(Cl)cccc2Cl)C1=O` (centres unmarked) [Compound A29], the pest or weed control at 62.5 g/ha is 90% in experiment [1] (setting [16]), 60% in experiment [2] (setting [16]), 0% in the experiment with Avena fatua (AVEFA) and 60% with Lolium perenne (LOLPE). For the same compound, the pest or weed control at 250 g/ha is 100% in experiment [1] (setting [16]); 80% in experiment [2] (setting [16]); 90% in [8]; 70% in experiment [11]; 60% in the experiment with Avena fatua (AVEFA); 80% in the experiment with Lolium perenne (LOLPE). Moreover, in experiment [13], the plant injury at 62.5 g/ha turned out to be 60%. Besides, in experiment [13], the plant injury at 250 g/ha was found to be 80%.
Consider `C#CCC1CC(=O)C(c2ccc(-c3ccc(Cl)cc3)cc2C)C1=O` (centres unmarked) [Compound A43], for which the pest or weed control at 250 g/ha in experiment [1] (setting [15]) was determined as 20%; in [2] (setting [15]), 20%; in the experiment on Setaria faberi (SETFA) [4] it was 70%; in experiment [6], 0%.
As for `C#CCC1C(=O)C(c2cc(-c3ccc(Cl)cc3)ccc2C)C(=O)C1CC#C` (centres unmarked) [Compound A44], the pest or weed control at 8 g/ha in experiment [1] (setting [17]) came out at 0%; in experiment [2] (setting [17]), 0%; in experiment [3] (8 g/ha), 0%; in the experiment on Setaria faberi (SETFA) [4] (8 g/ha), 0%; in experiment [5] (8 g/ha), 30%; in [6] (8 g/ha), 0%. Further, the pest or weed control at 250 g/ha is 0% in experiment [1] (setting [15]); 0% in experiment [2] (setting [15]); 10% in [3]; 0% with Setaria faberi (SETFA) [4]; 20% in [5]; 0% in [6].

The values above are taken from US10375956B2, “Herbicidally active 2-(substituted-phenyl)-cyclopentane-1,3-dione compounds and derivatives thereof” (Syngenta Limited, priority 2013, dated 2019).
